Test [1] has as its target T1, rat kidney medullary V2 receptors (Rattus norvegicus, UniProt Q00788).
T1 construct: Medullary tissues from rat kidneys are dissected out; from tissue; host or cells: rat kidney medulla membranes
The test is described as follows: Binding Assay to Rat Kidney Medullary V2 Receptors. The note with it: for IC50: rat kidney medullary V2. The protocol: Medullary tissues from rat kidneys are dissected out, cut into small pieces and soaked in a […] sodium chloride solution containing 1.0 mM EDTA with many changes of the liquid phase, until the solution is clear of blood. The tissue is homogenized in a 0.25M sucrose solution containing 1.0 mM EDTA and 0.1 mM PMSF using a Potter-Elvehjem homogenizer with a teflon pestle. The homogenate is filtered through several layers (4 layers) of cheese cloth. The filtrate is rehomogenized using a dounce homogenizer, with a tight fitting pestle. The final homogenate is centrifuged at 1500×g for 15 min. The nuclear pellet is discarded and the supernatant fluid recentrifuged at 40,000×g for 30 min. The resulting pellet formed contains a dark inner part with the exterior, slightly pink. The pink outer part is suspended in a small amount of 50.0 mM Tris.HCl buffer, pH 7.4. The protein content is determined by the Lowry's method (Lowry et al., J. Biol. Chem., 1953). The membrane suspension is stored at -70° C., in 50.0 mM Tris.HCl, containing 0.2% inactivated BSA and 0.1 mM PMSF in aliquots of 1.0 ml containing 10.0 mg protein per ml of suspension until use in subsequent binding experiments.
For binding experiments, the following is added in μl volume to wells of a 96 well format of a microtiter plate: 100.0 μl of 100.0 mM Tris.HCl buffer containing 0.2% heat inactivated BSA, 10.0 mM MgCl2 and a mixture of protease inhibitors: leupeptin, 1.0 mg %; aprotinin, 1.0 mg %; 1,10-phenanthroline, 2.0 mg %; trypsin inhibitor, 10.0 mg % and 0.1 mM PMSF, 20.0 μl of [^3 H] Arginine^8, vasopressin (S.A. 75.0 Ci/mmole) at 0.8 nM and the reaction initiated by the addition of 80.0 μl of tissue membranes (200.0 μg tissue protein). The plates are left undisturbed on the bench top for 120 min to reach equilibrium. Non-specific binding is assessed in the presence of 1.0 μM of unlabeled ligand, added in 20 μl volume. For test compounds, these are solubilized in 50% dimethylsulfoxide (DMSO) and added in 20.0 μl volume to a final incubation volume of 200 μl. Upon completion of binding, the content of each well is filtered off, using a Brandel® cell Harvester (Gaithersburg, Md.). The radioactivity trapped on the filter disk by the ligand-receptor complex is assessed by liquid scintillation counting in a Packard LS Counter, with an efficiency of 65% for tritium.

For test [2], the target named is vasopressin V1 receptor (rat liver plasma membranes) (Rattus norvegicus, UniProt P30560). The test is described as follows: Binding Assay to Rat Hepatic V1 Receptors. Particulars: for IC50: rat hepatic V1. The protocol: Rat liver plasma membranes expressing the vasopressin V1 receptor subtypes are isolated by sucrose density gradient according to the method described by Lesko et al., (1973). These membranes are quickly suspended in 50.0 mM Tris.HCl buffer, pH 7.4, containing 0.2% bovine serum albumin (BSA) and 0.1 mM phenylmethylsulfonylfluoride (PMSF) and kept frozen at -70° C. until used in subsequent binding experiments. For binding experiments, the following is added to the wells of a ninety-six well format microtiter plate: 100 μl of 100.0 mM Tris.HCl buffer containing 10.0 mM MgCl2, 0.2% heat inactivated BSA and a mixture of protease inhibitors: leupeptin, 1.0 mg %; aprotinin, 1.0 mg %; 1,10-phenanthroline,2.0 mg %; trypsin inhibitor, 10.0 mg % and 0.1 mM PMSF, 20.0 μl of [phenylalanyl-3,4,5,-^3 H] vasopressin (S.A. 45.1 Ci/mmole) at 0.8 nM, and the reaction initiated by the addition of 80 μl of tissue membranes containing 20 μg of tissue protein. The plates are kept undisturbed on the bench top at room temperature for 120 min. to reach equilibrium. Non-specific samples are assayed in the presence of 0.1 μM of the unlabeled antagonist phenylalanylvasopressin, added in 20.0 μl volume.
vasopressin V1 receptor (rat liver plasma membranes), sequence (P30560 whole entry): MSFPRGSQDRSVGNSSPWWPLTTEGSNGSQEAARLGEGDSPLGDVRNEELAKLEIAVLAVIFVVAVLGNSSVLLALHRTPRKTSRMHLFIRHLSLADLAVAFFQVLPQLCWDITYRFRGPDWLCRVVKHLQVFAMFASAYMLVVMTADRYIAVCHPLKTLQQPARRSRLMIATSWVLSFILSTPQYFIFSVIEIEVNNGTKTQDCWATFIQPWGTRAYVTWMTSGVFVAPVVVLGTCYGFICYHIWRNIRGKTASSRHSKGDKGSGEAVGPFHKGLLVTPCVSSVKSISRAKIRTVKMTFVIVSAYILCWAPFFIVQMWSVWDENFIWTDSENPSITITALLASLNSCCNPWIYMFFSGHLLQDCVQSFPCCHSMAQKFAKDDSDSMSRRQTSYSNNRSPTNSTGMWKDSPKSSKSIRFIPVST
For test compounds, these are solubilized in 50% dimethylsulfoxide (DMSO) and added in 20.0 μl volume to a final incubation volume of 200 μl. Upon completion of binding, the content of each well is filtered off, using a Brandel® cell Harvester (Gaithersburg, Md.). The radioactivity trapped on the filter disk by the ligand-receptor complex is assessed by liquid scintillation counting in a Packard LS Counter, with an efficiency of 65% for tritium.

The test system of the next test is vasopressin V1. Kind of test: Vasopressin V1 Antagonist Activity in Conscious Rats (vasopressin vasopressor response). The note with it: 10 mg/kg i.v. It is filed as in vivo, rat (spontaneously hypertensive rats). On the procedure: Conscious rats are restrained in a supine position with elastic tape. The area at the base of the tail is locally anesthetized by subcutaneous infiltration with 2% procaine (0.2 ml). Using aseptic technique the ventral caudal tail artery is isolated and a cannula made of PE 10 and 20 (heat-fused) tubing is passed into the lower abdominal aorta. The cannula is secured, heparinized (1000 i.u./cc), sealed and the wound closed with one or two stitches of Dexon 4-0. The caudal vein is also cannulated in the same manner for intravenous drug administration. The duration of the surgery is approximately 5 minutes. Additional local anesthesia (2% procaine or lidocaine) is provided as needed.
The animals are placed in plastic restraining cages in an upright position. The cannula is attached to a Statham P23Db pressure transducer and pulsatile blood pressure is recorded. […] The vasopressin injections are repeated 30, 60, 90, 120, 180, 240 and 300 min. later. Percentage of antagonism by the compound is calculated using the pre-drug vasopressin vasopressor response as 100%.

The mark [3] stands for this setting: rat kidney, read-out: V2, % at concentration in brackets.
[4] abbreviates: 2 h, rat hepatic, read-out: V1, % at concentration in brackets.

What is called IC50 is the concentration that gives 50% inhibition. Lower therefore signals higher potency.

T1 sequence (Q00788 whole entry): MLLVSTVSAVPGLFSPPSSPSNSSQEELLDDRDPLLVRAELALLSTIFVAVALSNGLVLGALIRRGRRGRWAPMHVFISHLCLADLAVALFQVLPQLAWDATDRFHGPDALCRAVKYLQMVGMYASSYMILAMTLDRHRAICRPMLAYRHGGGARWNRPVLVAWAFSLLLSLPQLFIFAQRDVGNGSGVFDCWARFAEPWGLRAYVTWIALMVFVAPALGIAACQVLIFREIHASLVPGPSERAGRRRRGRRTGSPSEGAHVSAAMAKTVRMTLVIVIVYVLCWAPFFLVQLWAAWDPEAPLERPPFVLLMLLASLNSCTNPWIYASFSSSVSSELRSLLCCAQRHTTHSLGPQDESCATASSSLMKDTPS

Turning to `Cc1ccsc1C(=O)Nc1ccc(C(=O)N2Cc3ccccc3-c3ccccc32)cc1` [Example 3, 3-Methyl-N-[4-[(5(6H)-phenanthridinyl)carbonyl]-phenyl]-2-thiophenecarboxamide], the figures for the concentration for half-maximal inhibition (IC50) in test [1] and in test [2] were 420 nM and 170 nM, respectively.
With `Cc1ccccc1C(=O)Nc1ccc(C(=O)N2Cc3ccccc3CCc3ccccc32)cc1` [Example 6, N-[4-[(11,12-Dihydrodibenz[b,f]azocin-5-(6H)-yl)-carbonyl]phenyl]-2-methylbenzamide], the inhibition at 50 µM in test [1] (setting [3]) was determined as 80%; in test [2] (setting [4]), 60%.
On to `O=C(Nc1ccc(C(=O)N2Cc3ccccc3Cc3ccccc32)cc1)c1ccccc1C(F)(F)F` [Example 166, N-[4-[(6,11-Dihydro-5H-dibenz(b,e]azepin-5-yl)carbonyl]phenyl]-2-trifluoromethylbenzamide], for which the 50% inhibitory concentration (IC50) in test [1] worked out at 245 nM; in test [2], 83 nM.
Consider `Cc1occc1C(=O)Nc1ccc(C(=O)N2Cc3ccccc3Cc3ccccc32)cc1` [Example 119], for which the IC50 in test [1] amounted to 1100 nM; in test [2], 39 nM.
Turning to `Cc1ccccc1C(=O)Nc1ccc(C(=O)N2Cc3cc(S(=O)(=O)N(C)C)ccc3Oc3ccccc32)cc1` [Example 23, N-[4-[[2-[(Dimethylamino)sulfonyl]dibenz[b,f][1,4]oxazepin-10(11H)-yl]carbonyl]phenyl]-2-methylbenzamide], the inhibition at 50 µM was 47% in test [1] (setting [3]) and 19% in test [2] (setting [4]).
`O=C(Nc1ccc(C(=O)N2Cc3ccccc3Cc3ccccc32)cc1)c1cccnc1` [Example 17, N-[4-[(6,11-Dihydro-5H-dibenz[b,e]azepin-5-yl)-carbonyl]phenyl]-3-pyridinecarboxamide]: the inhibition at 50 µM is 52% in test [1] (setting [3]) and 65% in test [2] (setting [4]).
In the case of `O=C(Nc1ccc(C(=O)N2Cc3ccccc3-c3ccccc32)cc1)c1c(Cl)cccc1Cl` [Example 7], the half-maximal inhibitory concentration (IC50) in test [1] was found to be 77 nM; in test [2], 630 nM.
Consider `O=C(Nc1ccc(C(=O)N2Cc3ccccc3Cc3ccccc32)cc1)c1ccccc1` [Example 24, N-[4-[(6,11-Dihydro-5H-dibenz[b,e]azepin-5-yl)carbonyl]phenyl]benzamide], for which the concentration for half-maximal inhibition (IC50) in test [1] was 410 nM; in test [2], 170 nM.
Taken in the same sequence, the figures for `O=C(Nc1ccc(C(=O)N2Cc3ccccc3Cc3ccccc32)cc1)c1cc(Cl)ccc1Cl` [Example 9, N-[4-[(6,11-Dihydro-5H-dibenz[b,e]azepin-5-yl)carbonyl]phenyl]-2,5-dichlorobenzamide] were 280 nM and 1100 nM.
As to `O=C(Nc1ccc(C(=O)N2Cc3ccccc3Sc3ccccc32)cc1)c1ccc(Cl)cc1Cl` [Example 449, N-[4-[(Dibenz[b,f][1,4]thiazepin-10(11H)-yl)-carbonyl]phenyl]-2 4-dichlorobenzamide], the IC50 in test [1] came to 250 nM. The compound further returned a half-inhibitory concentration (IC50) in test [2] of 360 nM. In the test with vasopressin V1, the “MAX % Inhibition” value amounted to 45% and the “Time of max % inhibition” value was 90 min.
In the case of `O=C(Nc1ccc(C(=O)N2Cc3ccccc3-c3ccccc32)cc1)c1ccc(Cl)c(Cl)c1` [Example 8, 3.4-Dichloro-N-[4-[(5(6H)-phenanthridinyl)carbonyl]phenyl]benzamide], the half-maximal inhibitory concentration (IC50) in test [1] came to 1500 nM; in test [2], 2800 nM.
Consider `Cc1ccc(C)c(C(=O)Nc2ccc(C(=O)N3Cc4ccccc4Cc4ccccc43)cc2)c1` [Example 12, N-[4-[(6,11-Dihydro-5H-dibenz[b,e]azepin-5-yl)carbonyl]phenyl]-2,5-dimethylbenzamide], for which the IC50 in test [1] turned out to be 180 nM; in test [2] it was 390 nM.
For the compound `COc1cc(Cl)ccc1C(=O)Nc1ccc(C(=O)N2Cc3ccccc3Cc3ccccc32)cc1` [Example 165, N-[4-[(6,11-Dihydro-5H-dibenz[b,e]azepin-5-yl)carbonyl]phenyl]-2-methoxy-4-chlorobenzamide], the figures for the IC50 in test [1] and in test [2] were 370 nM and 490 nM, respectively.
For `O=C(Nc1ccc(C(=O)N2Cc3ccccc3Cc3ccccc32)cc1)c1cccc(C(F)(F)F)c1` [Example 19, N-[4-[(6,11-Dihydro-5H-dibenz[b,e]azepine-5-yl)carbonyl]phenyl]-3-(trifluoromethyl)benzamide], the IC50 turned out to be 1200 nM in test [1] and 1300 nM in test [2].
For the compound `Cc1ccsc1C(=O)Nc1ccc(C(=O)N2Cc3ccccc3Cc3ccccc32)cc1` [Example 18, N-[4-[(6,11-Dihydro-5H-dibenz[b,e]azepin-5-yl)carbonyl]phenyl]-3-methyl-2-thiophenecarboxamide], the results for the IC50 in test [1] and in test [2] were 520 nM and 84 nM, respectively.
On to `O=C(Nc1ccc(C(=O)N2Cc3ccccc3Cc3ccccc32)cc1)c1ccccc1OC(F)(F)F` [Example 25, N-[4-[(6,11-Dihydro-5H-dibenz[b,e]azepin-5-yl)carbonyl]phenyl]-2-(trifluoromethoxy)benzamide], for which the values for the IC50 in test [1] and in test [2] were 560 nM and 52 nM, respectively.
Taken in the same sequence, the figures for `O=C(Nc1ccc(C(=O)N2Cc3ccccc3Cc3ccccc32)cc1)c1ccc(F)cc1F` [Example 21, N-[4-[(6,11-Dihydro-5H-dibenz[b,e]azepin-5-yl)carbonyl]phenyl]-2,4-difluorobenzamide] were 440 nM and 280 nM.
`Cc1ccccc1C(=O)Nc1ccc(C(=O)N2Cc3cc(Cl)ccc3Oc3ccccc32)cc1` [Example 4]: the IC50 came out at 1700 nM in test [1] and 1500 nM in test [2].
As for `O=C(Nc1ccc(C(=O)N2Cc3ccccc3Cc3ccccc32)cc1)c1ccc(C(F)(F)F)cc1` [Example 20, N-[4-[(6,11-Dihydro-5H-dibenz[b,e]azepin-5-yl)carbonyl]phenyl]-4-(trifluoromethyl)benzamide], the inhibition at 10 µM came to 48% in test [1] (10 μM, rat kidney, read-out: V2, % at concentration in brackets) and 17% in test [2] (2 h, 10 μM, rat hepatic, read-out: V1, % at concentration in brackets).
For `Cc1ccc(C(=O)Nc2ccc(C(=O)N3Cc4ccccc4Cc4ccccc43)cc2)c(C)c1` [Example 13, N-[4-[(6,11-Dihydro-5H-dibenz[b,e]azepin-5-yl)carbonyl]phenyl]2,4-dimethylbenzamide], the concentration for half-maximal inhibition (IC50) in test [1] was 300 nM; in test [2], 340 nM.

The values are drawn from patent publication US5834461A, “Tricyclic benzazepine vasopressin antagonists” (American Cyanamid Company, priority 1997, dated 1998).
